Key:
Format in all cases: cell-based
[1] = tested on: Wnt activity (Sp5-Luc reporter, SW480 colon carcinoma cells); test: Screening assay for Wnt activity (Sp5-Luc reporter gene assay in SW480 cells); settings: Homo sapiens; for EC50: Sp5-Luc reporter, SW480 cells, incubated overnight
How it was run: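 SW480 colon carcinoma cells stably carrying Sp5 promoter (eight TCF/LEF sites)-driven firefly luciferase, plated at 4,000 cells/well in 1% FBS medium and incubated overnight at 37° C. Luminescence normalised to DMSO-only cells; EC50 from four-parameter variable-slope nonlinear regression.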

SW480 colon cancer cells = test: Cell viability assay (CellTiter-Blue); settings: Homo sapiens; for EC50: 96 h, SW480 cell viability, four days, CellTiter-Blue; for inhibition at 10 µM: SW480, 96 h, read-out: percent inhibition at 10 μM
How it was run: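 Fluorescence from resazurin reduced to resorufin by metabolically active cells was the read-out, taken after ~3 h with CellTiter-Blue.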

[2] = tested on: primary human fibroblasts derived from IPF patients (LL29 cells) treated with TGF-β1; test: Inhibition of the fibrotic process (αSMA staining) in TGF-β1-treated fibroblasts; settings: Fibroblast, 96 h; for EC50: % αSMA-positive LL29 cells, TGF-β1 20 ng/mL, 4 days; for inhibition at 10 µM: read-out: percent inhibition at 10 μM
How it was run: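 LL29 fibroblasts from IPF patients, 1,500 cells/well in F12 with 1% FBS, stimulated with TGF-β1; TGF-β1 plus DMSO wells as controls. Incubation 4 days, then SYTOX green 1 μM final for 30 min at room temperature. Fibrotic response read as αSMA staining.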

[3] = tested on: primary human mesenchymal stem cells (hMSCs); test: Induction of chondrogenesis in hMSCs (Rhodamine B / Nile Red nodule imaging); settings: for Emax: maximum activity relative to TGF-β3 (10 ng/mL) positive control, read-out: Max. Activity as % TGF-β3 activity; for EC50: concentration required to induce 50% levels of chondrogenesis vs TGF-β3 positive control, read-out: Conc (nM) of 50% TGF-β3 activity
How it was run: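 Primary hMSCs at passage 3-6 were treated with compound; nodule area per well was normalized to the mean of 3 DMSO wells, averaged over 2-3 replicates, and the concentration giving 50% chondrogenesis relative to TGF-β3 control, plus maximum activity and its dose, was derived.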

IL-6 (THP-1 cells) = test: IL-6 inhibition in LPS-stimulated THP-1 cells (HTRF); settings: Homo sapiens; for EC50: IL6 by HTRF, THP-1 cells, 500 ng/mL LPS, 22 hours; for inhibition at 10 µM: THP-1, read-out: percent inhibition at 10 M
How it was run: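 THP-1 cells, pre-cultured 24 h in 1% FBS medium, treated with compound 2 h at 37 °C, then stimulated with 500 ng/mL LPS for 22 h. Secreted IL-6 measured by HTRF as the 665/620 nm ratio. Values normalized to DMSO; EC50 from four-parameter fit, duplicates.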

`c1cc2[nH]c(-c3n[nH]c4ccc(-c5cncc(CN6CCCCC6)c5)cc34)cc2c(N2CCCCC2)n1` [Compound 183, 3-(4-(Piperidin-1-yl)-1H-pyrrolo[3,2-c]pyridin-2-yl)-5-(5-(piperidin-1-ylmethyl)pyridin-3-yl)-1H-indazole] gave an EC50 [1] of 4210 nM, an EC50 (SW480 colon cancer cells) of 3810 nM and an EC50 [2] of 3280 nM. For the same compound, the Emax [3] was 48% and the EC50 (IL-6 (THP-1 cells)) was 9310 nM.

With `CC(C)C(=O)Nc1cncc(-c2ccc3[nH]nc(-c4cc5c(-c6ccccc6F)nccc5[nH]4)c3c2)c1` [Compound 65, N-(5-(3-(4-(2-Fluorophenyl)-1H-pyrrolo[3,2-c]pyridin-2-yl)-1H-indazol-5-yl)pyridin-3-yl)isobutyramide] the EC50 [1] was 170 nM, the EC50 (SW480 colon cancer cells) was 221 nM and the EC50 [2] was 98 nM. It also gave an EC50 [3] of 2700 nM, an Emax [3] of 108% and an EC50 (IL-6 (THP-1 cells)) of 73 nM.

`CN1CCN(c2nccc3[nH]c(-c4n[nH]c5ccc(-c6cncc(CN7CCCC7)c6)cc45)cc23)CC1` [Compound 238, 3-(4-(4-Methylpiperazin-1-yl)-1H-pyrrolo[3,2-c]pyridin-2-yl)-5-(5-(pyrrolidin-1-ylmethyl)pyridin-3-yl)-1H-indazole] was tested, and the EC50 [1] was 9380 nM, the EC50 (SW480 colon cancer cells) was 4190 nM and the EC50 [2] was greater than 10000 nM. It also gave an inhibition at 10 µM [2] of 45.7%, an Emax [3] of 31% and an inhibition at 10 µM (IL-6 (THP-1 cells)) of 40.5%. The EC50 (IL-6 (THP-1 cells)) was greater than 10000 nM.

`CCCCC(=O)Nc1cncc(-c2ccc3[nH]nc(-c4cc5c(-c6ccccc6F)nccc5[nH]4)c3c2)c1` [Compound 75, N-(5-(3-(4-(2-Fluorophenyl)-1H-pyrrolo[3,2-c]pyridin-2-yl)-1H-indazol-5-yl)pyridin-3-yl)pentanamide] was tested, and the EC50 [1] was 345 nM, the EC50 (SW480 colon cancer cells) was 221 nM and the EC50 [2] was 254 nM. For the same compound, the EC50 [3] was 2700 nM, the Emax [3] was 76% and the EC50 (IL-6 (THP-1 cells)) was 39 nM.

With `CC(C)Nc1cncc(-c2ccc3[nH]nc(-c4cc5c(-c6cc(F)cc(CNS(C)(=O)=O)c6)nccc5[nH]4)c3c2)c1` [Compound 488, N-(3-Fluoro-5-(2-(5-(5-(isopropylamino)pyridin-3-yl)-1H-indazol-3-yl)-1H-pyrrolo[3,2-c]pyridin-4-yl)benzyl)methanesulfonamide] the EC50 [1] was 151 nM, the EC50 (SW480 colon cancer cells) was 358 nM and the EC50 [2] was 125 nM. The EC50 [3] was 300 nM, the Emax [3] was 191% and the EC50 (IL-6 (THP-1 cells)) was 40 nM.

`c1cc2[nH]c(-c3n[nH]c4ccc(-c5cncc(CN6CCCC6)c5)cc34)cc2cn1` [Compound 266, 5-(5-(Pyrrolidin-1-ylmethyl)pyridin-3-yl)-3-(1H-pyrrolo[3,2-c]pyridin-2-yl)-1H-indazole] gave an EC50 [1] of 790 nM, an EC50 (SW480 colon cancer cells) of 514 nM and an EC50 [2] of 1850 nM. For the same compound, the Emax [3] was 26% and the EC50 (IL-6 (THP-1 cells)) was 380 nM.

In the case of `O=C(Nc1cncc(-c2ccc3[nH]nc(-c4cc5c(-c6cccnc6)nccc5[nH]4)c3c2)c1)c1ccccc1` [Compound 95, N-(5-(3-(4-(Pyridin-3-yl)-1H-pyrrolo[3,2-c]pyridin-2-yl)-1H-indazol-5-yl)pyridin-3-yl)benzamide], the EC50 [1] is reported as 421 nM, the EC50 (SW480 colon cancer cells) is reported as greater than 10000 nM and the inhibition at 10 µM (SW480 colon cancer cells) is reported as 15.5%. The EC50 [2] was greater than 10000 nM, the inhibition at 10 µM [2] was 0% and the Emax [3] was 19%. The EC50 (IL-6 (THP-1 cells)) was 10 nM.

For `CC(C)C(=O)Nc1cncc(-c2ccc3[nH]nc(-c4cc5c(N6CCN(C)CC6)nccc5[nH]4)c3c2)c1` [Compound 233, N-(5-(3-(4-(4-Methylpiperazin-1-yl)-1H-pyrrolo[3,2-c]pyridin-2-yl)-1H-indazol-5-yl)pyridin-3-yl)isobutyramide], the EC50 [1] was 7690 nM, the EC50 (SW480 colon cancer cells) was greater than 10000 nM and the inhibition at 10 µM (SW480 colon cancer cells) was 38.5%. For the same compound, the EC50 [2] was 4720 nM, the Emax [3] was 21% and the EC50 (IL-6 (THP-1 cells)) was 6110 nM.

For `FC1(F)CCN(Cc2cncc(-c3ccc4[nH]nc(-c5cc6c(N7CCCCC7)nccc6[nH]5)c4c3)c2)C1` [Compound 194, 5-(5-((3,3-difluoropyrrolidin-1-yl)methyl)pyridin-3-yl)-3-(4-(piperidin-1-yl)-1H-pyrrolo[3,2-c]pyridin-2-yl)-1H-indazole], the EC50 [1] was 2000 nM, the EC50 (SW480 colon cancer cells) was 1420 nM and the EC50 [2] was 1000 nM. For the same compound, the Emax [3] was 40% and the EC50 (IL-6 (THP-1 cells)) was 257 nM.

`O=C(Nc1cncc(-c2ccc3[nH]nc(-c4cc5c(-c6ccccc6F)nccc5[nH]4)c3c2)c1)C1CCCC1` [Compound 78, N-(5-(3-(4-(2-Fluorophenyl)-1H-pyrrolo[3,2-c]pyridin-2-yl)-1H-indazol-5-yl)pyridin-3-yl)cyclopentanecarboxamide] gave an EC50 [1] of 418 nM, an EC50 (SW480 colon cancer cells) of 549 nM and an EC50 [2] of 841 nM. For the same compound, the EC50 [3] was 10 nM, the Emax [3] was 71% and the EC50 (IL-6 (THP-1 cells)) was 78 nM.

Compound `CCCCC(=O)Nc1cncc(-c2ccc3[nH]nc(-c4cc5c(N6CCN(C)CC6)nccc5[nH]4)c3c2)c1` [Compound 243, N-(5-(3-(4-(4-Methylpiperazin-1-yl)-1H-pyrrolo[3,2-c]pyridin-2-yl)-1H-indazol-5-yl)pyridin-3-yl)pentanamide] has an EC50 [1] of 3690 nM, an EC50 (SW480 colon cancer cells) of 3480 nM and an EC50 [2] of 1830 nM. The Emax [3] was 49% and the EC50 (IL-6 (THP-1 cells)) was 3170 nM.

`Nc1cncc(-c2ccc3[nH]nc(-c4cc5c(-c6ccncc6)nccc5[nH]4)c3c2)c1` [Compound 115, 5-(3-(4-(Pyridin-4-yl)-1H-pyrrolo[3,2-c]pyridin-2-yl)-1H-indazol-5-yl)pyridin-3-amine] was tested, and the EC50 [1] was 658 nM, the EC50 (SW480 colon cancer cells) was 3790 nM and the EC50 [2] was 1390 nM. For the same compound, the EC50 [3] was 100 nM, the Emax [3] was 77% and the inhibition at 10 µM (IL-6 (THP-1 cells)) was 29%. The EC50 (IL-6 (THP-1 cells)) was greater than 10000 nM.

`CS(=O)(=O)NCc1cc(F)cc(-c2nccc3[nH]c(-c4n[nH]c5ccc(-c6ccncc6)cc45)cc23)c1` [Compound 494, N-(3-Fluoro-5-(2-(5-(pyridin-4-yl)-1H-indazol-3-yl)-1H-pyrrolo[3,2-c]pyridin-4-yl)benzyl)methanesulfonamide] gave an inhibition at 10 µM ([1]; SW480, read-out: percent inhibition at 10 μM) of 19%, an EC50 [1] greater than 10000 nM and an EC50 (SW480 colon cancer cells) greater than 10000 nM. For the same compound, the inhibition at 10 µM (SW480 colon cancer cells) was 9.5%, the EC50 [2] was greater than 10000 nM and the inhibition at 10 µM [2] was 0%. The EC50 [3] was 900 nM, the Emax [3] was 66% and the inhibition at 10 µM (IL-6 (THP-1 cells)) was 44.6%. The EC50 (IL-6 (THP-1 cells)) was greater than 10000 nM.

`Fc1ccccc1-c1nccc2[nH]c(-c3n[nH]c4ccc(-c5cncc(CN6CCC(F)(F)C6)c5)cc34)cc12` [Compound 82, 5-(5-((3,3-Difluoropyrrolidin-1-yl)methyl)pyridin-3-yl)-3-(4-(2-fluorophenyl)-1H-pyrrolo[3,2-c]pyridin-2-yl)-1H-indazole] showed an EC50 [1] of 233 nM, an EC50 (SW480 colon cancer cells) of 821 nM and an EC50 [2] of 221 nM. It also gave an EC50 [3] of 2700 nM, an Emax [3] of 172% and an EC50 (IL-6 (THP-1 cells)) of 181 nM.

`CN(C)Cc1cncc(-c2ccc3[nH]nc(-c4cc5c(N6CCCCC6)nccc5[nH]4)c3c2)c1` [Compound 181, N,N-Dimethyl-1-(5-(3-(4-(piperidin-1-yl)-1H-pyrrolo[3,2-c]pyridin-2-yl)-1H-indazol-5-yl)pyridin-3-yl)methanamine] showed an EC50 [1] of 4710 nM, an EC50 (SW480 colon cancer cells) of 1940 nM and an EC50 [2] of 3320 nM. The EC50 [3] was 10 nM, the Emax [3] was 220% and the inhibition at 10 µM (IL-6 (THP-1 cells)) was 22.5%. For the same compound, the EC50 (IL-6 (THP-1 cells)) was greater than 10000 nM.
